Data: patent US20230181674A1, “ALLERGEN PROTECTION AGAINST URUSHIOLS” (BEIERSDORF AG, priority 2020, published 2023)

Experiment: direct peptide reactivity assay (DPRA), in-chemico, unbound peptide detected with Ellman's reagent
Conditions: 24 h reaction; allergen 5 mM, peptide 0.5 mM; absorbance at 415 nm with DTNB; urushiol structures I-V; n = 3; FIG. 2
Method: The absorbance is plotted on the y-axis. The peptide-allergen reactions were realized according to a direct peptide reactivity assay. The test is referred to as the in-chemico method, that is to say no cells are used, but a chemical reaction is carried out.
The direct peptide reaction assay (DPRA) is an OECD-validated test method.
The native, still-unbound peptide is detected by reaction with Ellman’s reagent and corresponding absorbance measurement. The direct peptide reactivity assay (DPRA) is a chemical method for predicting epidermal protein binding. DPRA uses for example HPLC to measure the depletion of peptides in solution after exposure to test chemicals.
RFAACAA was selected as an example of a peptide of the invention.
In the DPRA method, the absorbance at 415 nm is determined as the measured variable.
The allergen concentration is in the investigations carried out a standard 5 mM and thus 10 times the concentration of the peptide used (0.5 mM).
The reaction courses shown were determined colorimetrically through the reaction of the peptide with Ellmann’s reagent in a photometer. In this reaction, DTNB ((5,5′-dithiobis-2-nitrobenzoic acid, Ellmann’s reagent) is cleaved and attached to the SH residue of the amino acid cysteine of the peptides of the invention (RFAACAA).
The SH radical is at the same time the reactive binding site of the peptide with the allergens. […]

Substance	reactivity of peptides with urushiol allergens (fall in peptide, protective activity)
RFAACAA [Arg Phe Ala Ala Cys Ala Ala]	very high reactivity
acetyl-arginine-phenylalanine-alanine-alanine-cysteine-alanine-alanine [Ac-RFAACAA]	very high reactivity
